Measured values published in paper PMC6032235 (2018).

Tests used:
Test in all cases: CD
[1] = tested on: B1 (DNA, aptamer) GAGAGTCAATCGACCTGGGGGAGTATTGCGGAGGAAGGTACGCATTCGCTATA; conditions: 300 mM NaCl, 5 mM MgCl2; 20 mM Tris-HCl; 5 μM DNA, 1 mM ATP, room temperature; peak shift 272 to 277 nm
[2] = tested on: B-linker (B1/B2 assembly) (DNA, aptamer) GAGAGTCAATCGACCTGGGGGAGTATTGCGGAGGAAGGTACGCATTCGCTATA/GAGAGTCAATCGTATAGCGAATGCGT; conditions: 300 mM NaCl, 5 mM MgCl2; 20 mM Tris-HCl; 5 μM DNA, 1 mM ATP; peak shift 273 to 279 nm; CD alone not conclusive
[3] = tested on: L1 (random DNA sequence) (DNA, single strand) GAGAGTCAATCGTCTATTCGCATGAGAATTCCATTCACCGTAAG; conditions: 300 mM NaCl, 5 mM MgCl2; 20 mM Tris-HCl; 5 μM DNA, 1 mM ATP; nonspecific peak shift 277 to 280 nm

With Nc1ncnc2c1ncn2[C@@H]1O[C@H](COP(=O)(O)OP(=O)(O)OP(=O)(O)O)[C@@H](O)[C@H]1O the binding [1] was “yes”, the binding [2] was “yes” and the binding [3] was “no”.
